Results taken from ChEMBL document CHEMBL1201862, “PubChem BioAssay data set” (2004).
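48-hour exposure; five concentrations; linearly interpolated endpoints. GI50 = concentration required for 50% inhibition of growth.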 The source made the active and inactive calls. Cut-off read from the data, not from the text of the source: active = GI50 up to about 1.1 µM and inactive = higher.

What was measured:
Assay in all cases: growth of human tumour cells (NCI), 48 h
DMS-114 = test system: DMS-114
DMS-273 = test system: DMS-273
KM-20L2 = test system: KM-20L2
M19-MEL = test system: M19-MEL
XF498 = test system: XF498
SNB-78 = test system: SNB-78
HOP-18 = test system: HOP-18
LXFL 529 = test system: LXFL 529
RXF 631 = test system: RXF 631

Row | Compound | GI50 (DMS-114) | GI50 (DMS-273) | GI50 (KM-20L2) | GI50 (M19-MEL) | GI50 (XF498) | GI50 (SNB-78) | GI50 (HOP-18) | GI50 (LXFL 529) | GI50 (RXF 631)
1 | C#CN1C(=O)c2c(c(-c3ccccc3)c(-c3ccc(Oc4ccc(-c5c(-c6ccccc6)c6c(c(-c7ccccc7)c5-c5ccccc5)C(=O)N(C#C)C6=O)cc4)cc3)c(-c3ccccc3)c2-c2ccccc2)C1=O | > 100 µM (inactive) | > 100 µM (inactive) | > 100 µM (inactive) | > 100 µM (inactive) | 23.2 µM (inactive) | – | – | – | –
2 | CC(=O)CNC(=O)OC(C)(C)C | > 100 µM (inactive) | > 100 µM (inactive) | > 100 µM (inactive) | > 100 µM (inactive) | > 100 µM (inactive) | > 100 µM (inactive) | – | – | –
3 | C1OC1CO[C@@H]1CO[C@H]2[C@@H]1OC[C@H]2OCC1CO1 (stereo not given in full) | > 100 µM (inactive) | > 100 µM (inactive) | > 100 µM (inactive) | > 100 µM (inactive) | > 100 µM (inactive) | > 100 µM (inactive) | > 100 µM (inactive) | – | –
4 | O=C(COc1ccc2c(=O)cc(-c3ccc(Cl)cc3)oc2c1)N1CCN(c2ccccc2)CC1 | – | – | > 100 µM (inactive) | > 100 µM (inactive) | > 100 µM (inactive) | 5.11 µM (inactive) | – | 11.9 µM (inactive) | 6.58 µM (inactive)
5 | O=C(/C=C/c1cc(Cl)cc(Cl)c1O)c1cccc(O)c1 | 35.9 µM (inactive) | 54.2 µM (inactive) | 48.3 µM (inactive) | 26.5 µM (inactive) | – | 91.8 µM (inactive) | 31 µM (inactive) | 57.1 µM (inactive) | –
6 | O=C1N[C@@H](O)[C@@H]2ON=C(c3ccccc3)[C@H]12 | > 100 µM (inactive) | > 100 µM (inactive) | > 100 µM (inactive) | > 100 µM (inactive) | > 100 µM (inactive) | – | > 100 µM (inactive) | > 100 µM (inactive) | > 100 µM (inactive)
7 | CCCCCCCCCCCC(=O)OC[C@@H](C[As](=O)(O)O)OC(=O)CCCCCCCCCCC | 2.12 µM (inactive) | 3.26 µM (inactive) | 13.4 µM (inactive) | 6.05 µM (inactive) | 14.2 µM (inactive) | 3.39 µM (inactive) | 14.5 µM (inactive) | 5.45 µM (inactive) | –
8 | COc1cc(C=O)c(-c2cc3c(cc2C2(C)OCCS2)OCO3)c(OC)c1OC (stereo not given) | 17.5 µM (inactive) | 10.3 µM (inactive) | 4.08 µM (inactive) | – | 9.66 µM (inactive) | 8.65 µM (inactive) | – | 17.6 µM (inactive) | –
9 | COc1ccc(-c2nc3c(nc2-c2ccc(OC)cc2)C(N)=NS(=O)(=O)N3)cc1 | > 100 µM (inactive) | > 100 µM (inactive) | – | > 100 µM (inactive) | – | – | – | – | > 100 µM (inactive)
10 | CCOc1ccc(N2C(=O)/C(=C/c3ccc(N(CCC#N)CCC#N)cc3)N=C2c2cc([N+](=O)[O-])ccc2Cl)cc1 | 33.9 µM (inactive) | 14.7 µM (inactive) | – | 24.2 µM (inactive) | – | > 100 µM (inactive) | > 100 µM (inactive) | 30 µM (inactive) | 39.6 µM (inactive)
11 | O=C(/C=C1/Nc2ccc([N+](=O)[O-])cc2NC1O)c1cccc([N+](=O)[O-])c1 (stereo not given) | 32.1 µM (inactive) | 16.3 µM (inactive) | 25.4 µM (inactive) | 58.3 µM (inactive) | > 100 µM (inactive) | > 100 µM (inactive) | – | 19.9 µM (inactive) | –
12 | COC(=O)C1=C(C)N(NC(N)=O)C2(N)N(NC(N)=O)C(C)=C(C(=O)OC)C12C(=O)OC (stereo not given) | > 100 µM (inactive) | > 100 µM (inactive) | > 100 µM (inactive) | > 100 µM (inactive) | > 100 µM (inactive) | > 100 µM (inactive) | > 100 µM (inactive) | > 100 µM (inactive) | > 100 µM (inactive)
13 | O=C(/C=C/c1ccc(OCCCCCCCCCCOc2ccc(/C=C/C(=O)c3ccc(Cl)cc3)cc2)cc1)c1ccc(Cl)cc1 | > 100 µM (inactive) | > 100 µM (inactive) | > 100 µM (inactive) | – | – | > 100 µM (inactive) | > 100 µM (inactive) | – | > 100 µM (inactive)
14 | Nc1nc2ncn(CC(O)CO)c2c(=S)[nH]1 (stereo not given) | > 100 µM (inactive) | > 100 µM (inactive) | > 100 µM (inactive) | > 100 µM (inactive) | 23.4 µM (inactive) | > 100 µM (inactive) | > 100 µM (inactive) | > 100 µM (inactive) | > 100 µM (inactive)
15 | O=C1c2ccccc2C(=O)c2nc(-c3ccccc3)c(-c3ccccc3)nc21 | 1.21 µM (inactive) | 33.7 µM (inactive) | 50.5 µM (inactive) | 0.427 µM (active) | 14.4 µM (inactive) | > 100 µM (inactive) | 26.7 µM (inactive) | > 100 µM (inactive) | 33.4 µM (inactive)
16 | c1ccc(SC23C4C5C6C4C2C6C53)nc1 (stereo not given) | > 100 µM (inactive) | > 100 µM (inactive) | > 100 µM (inactive) | > 100 µM (inactive) | – | > 100 µM (inactive) | 4.86 µM (inactive) | > 100 µM (inactive) | > 100 µM (inactive)
17 | O=C(CC(=O)c1cccc2ccccc12)C(=O)NC1C2CC3CC(C2)CC1C3 (stereo not given) | > 100 µM (inactive) | > 100 µM (inactive) | > 100 µM (inactive) | > 100 µM (inactive) | > 100 µM (inactive) | > 100 µM (inactive) | 60.1 µM (inactive) | > 100 µM (inactive) | > 100 µM (inactive)
18 | CN(C)C(=S)Nc1nnc(Nc2ccccc2)s1 | – | > 100 µM (inactive) | > 100 µM (inactive) | > 100 µM (inactive) | – | > 100 µM (inactive) | > 100 µM (inactive) | > 100 µM (inactive) | > 100 µM (inactive)
19 | CCCCN(Cc1ccccc1)/C(=N/C#N)N(Cc1ccccc1)Cc1ccccc1 | – | 16.6 µM (inactive) | 6.82 µM (inactive) | 24.4 µM (inactive) | – | 24.2 µM (inactive) | – | 7.94 µM (inactive) | –
20 | COC(=O)/C=C/c1cc(OC)c(OC)c(OC)c1 | > 100 µM (inactive) | > 100 µM (inactive) | > 100 µM (inactive) | 93.8 µM (inactive) | > 100 µM (inactive) | – | > 100 µM (inactive) | > 100 µM (inactive) | 82.4 µM (inactive)
21 | Cc1ccc(C2(O)CC(c3ccc([N+](=O)[O-])o3)=NN2C(=O)COc2ccc(Cl)cc2)cc1 (stereo not given) | 9.86 µM (inactive) | 6.32 µM (inactive) | 7.18 µM (inactive) | 3.67 µM (inactive) | 11.4 µM (inactive) | 12.9 µM (inactive) | 20.9 µM (inactive) | 2.79 µM (inactive) | –
22 | COc1ccc(/C(=N\NC(=N)N)C(c2ccc(OC)cc2)C2OC(=O)c3ccccc32)cc1 (stereo not given) | > 100 µM (inactive) | > 100 µM (inactive) | > 100 µM (inactive) | > 100 µM (inactive) | > 100 µM (inactive) | > 100 µM (inactive) | – | > 100 µM (inactive) | > 100 µM (inactive)
23 | Clc1cccc(-c2nnc(-c3nn(-c4ccccc4)c4nc5ccccc5nc34)o2)c1 | > 100 µM (inactive) | > 100 µM (inactive) | > 100 µM (inactive) | > 100 µM (inactive) | 43.8 µM (inactive) | > 100 µM (inactive) | > 100 µM (inactive) | 78.9 µM (inactive) | –
